For 67 compounds, IC50 results are on record in patent US10308660B2, “Compounds and compositions for inhibiting the activity of SHP2” (Novartis AG, priority 2015, dated 2019).

The structures appear in SMILES notation.

SHP2, sequence (Q06124 whole entry): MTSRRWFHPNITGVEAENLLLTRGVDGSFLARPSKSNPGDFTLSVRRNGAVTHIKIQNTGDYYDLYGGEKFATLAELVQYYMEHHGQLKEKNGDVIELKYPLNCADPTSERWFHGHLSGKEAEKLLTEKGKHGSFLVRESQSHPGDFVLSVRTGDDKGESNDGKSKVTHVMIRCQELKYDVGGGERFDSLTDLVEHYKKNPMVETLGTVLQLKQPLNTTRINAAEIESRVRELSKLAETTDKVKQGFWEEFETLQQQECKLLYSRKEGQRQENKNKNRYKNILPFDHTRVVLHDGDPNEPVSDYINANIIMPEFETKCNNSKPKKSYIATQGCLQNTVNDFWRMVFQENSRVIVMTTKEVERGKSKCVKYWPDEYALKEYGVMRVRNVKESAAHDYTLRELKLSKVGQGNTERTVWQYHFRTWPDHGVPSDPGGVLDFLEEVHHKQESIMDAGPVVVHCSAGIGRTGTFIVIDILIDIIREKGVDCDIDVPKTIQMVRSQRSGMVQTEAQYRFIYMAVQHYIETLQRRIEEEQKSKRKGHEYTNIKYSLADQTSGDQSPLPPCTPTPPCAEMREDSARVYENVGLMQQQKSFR

This experiment addresses SHP2 (Homo sapiens (Human), UniProt Q06124). As to the kind of experiment: SHP2 allosteric inhibition assay (DiFMUP prompt fluorescence). Particulars: 0.5 nM SHP2 activated with 0.5 μM peptide IRS1_pY1172(dPEG8)pY1222; substrate DiFMUP; 25° C. Type of experiment: biochemical.
The compound `C[C@@H]1OCC2(CCN(c3nc(N)c(-c4ccc(OC(F)(F)F)cc4)c(=O)n3C)CC2)[C@@H]1N` [Example 169] had an IC50 of 119 nM.

`C[C@@H]1OCC2(CCN(c3ncc(Sc4cccc(Cl)c4Cl)c(=O)n3C)CC2)[C@@H]1N` [Example 103] displayed an IC50 of 15 nM.

As for `C[C@@H]1OCC2(CCN(c3nc(N)c(-c4ccc(C5CCOCC5)cc4)c(=O)n3C)CC2)[C@@H]1N` [Example 178], half-maximal inhibition (IC50) was put at 412 nM.

With `C[C@@H]1OCC2(CCN(c3nc(N)c(-c4ccnc(Cl)c4)c(=O)n3C)CC2)[C@@H]1N` [Example 187], the IC50 is 2950 nM.

For `C[C@H]1C[C@@H](N)C2(CCN(c3nc(N)c(Sc4cccc(N)c4Cl)c(=O)n3C)CC2)C1` [Example 60], half-maximal inhibition (IC50) required 16 nM.

Compound `C[C@@H]1OCC2(CCN(c3nc(N)c(-c4ccc(SC(F)(F)F)cc4)c(=O)n3C)CC2)[C@@H]1N` [Example 130] registered an IC50 of 14 nM.

`CC(C)c1ccc(-c2c(N)nc(N3CCC4(CC3)CO[C@@H](C)[C@H]4N)n(C)c2=O)cc1` [Example 131] displayed an IC50 of 16 nM.

In the case of `C[C@@H]1OCC2(CCN(c3ncc(Sc4cc(N)nc(Cl)c4Cl)c(=O)n3C)CC2)[C@@H]1N` [Example 112], the IC50 turned out to be 19 nM.

Compound `COc1ccccc1Sc1c(N)nc(N2CCC(C)(CN)CC2)n(C)c1=O` [Example 47] returned an IC50 of 206 nM.

Compound `C[C@H]1C[C@@H](N)C2(CCN(c3nc(N)c(-c4ccc(F)c(F)c4)c(=O)n3C)CC2)C1` [Example 127] registered an IC50 of 14 nM.

Compound `C[C@@H]1OCC2(CCN(c3nc(N)c(-c4ccccc4F)c(=O)n3C)CC2)[C@@H]1N` [Example 153] returned an IC50 of 46 nM.

`C[C@@H]1OCC2(CCN(c3nc(N)c(Sc4cccc(N)c4C(F)(F)F)c(=O)n3C)CC2)[C@@H]1N` [Example 31] returned a concentration for half-maximal inhibition (IC50) of 20 nM.

As to `Cn1c(N2CCC(C)(CN)CC2)nc(N)c(Sc2ccc(N)cc2Cl)c1=O` [Example 53], the IC50 was 609 nM.

The compound `Cn1c(N2CCC3(CCC[C@H]3N)CC2)nc(N)c(Sc2cccc(Cl)c2Cl)c1=O` [Example 13] gave an IC50 of 39 nM.

`C[C@@H]1OCC2(CCN(c3nc(N)c(-c4cc(F)cc(F)c4)c(=O)n3C)CC2)[C@@H]1N` [Example 164] yielded an IC50 of 75 nM.

For `Cn1c(N2CCC(C)(CN)CC2)ccc(Sc2cccc(Cl)c2Cl)c1=O` [Example 116, 6-(4-(aminomethyl)-4-methylpiperidin-1-yl)-3-((2,3-dichlorophenyl)thio)-1-methylpyridin-2(1H)-one], inhibition was half-maximal at 1620 nM (IC50).

As to `C[C@@H]1CC2(CCN(c3nc(N)c(Sc4ccnc(N)c4Cl)c(=O)n3C)CC2)[C@H](N)[C@@H]1F` (single isomer, unassigned) [Example 38], the IC50 was found to be 30 nM.

For `Cn1c(N2CCC3(CC2)CC(F)(F)C[C@H]3N)nc(N)c(Sc2cccnc2C(F)(F)F)c1=O` [Example 43], half-maximal inhibition (IC50) was put at 18 nM.

For `Cn1c(N2CCC(C)(CN)CC2)nc(N)c(Sc2cccc3ncccc23)c1=O` [Example 24], it took 299 nM to reach half-maximal inhibition (IC50).

`Cc1nc(N2CCC3(CC2)CO[C@@H](C)[C@H]3N)n(C)c(=O)c1Sc1cccnc1C(F)(F)F` [Example 122] displayed an IC50 of 68 nM.

With `COc1nccc(Sc2c(N)nc(N3CCC4(CC3)C[C@@H](C)C[C@H]4N)n(C)c2=O)c1Cl` [Example 77], inhibition was half-maximal at 39 nM (IC50).

`Cn1c(N2CCC(C)(CN)CC2)nc(N)c(Sc2ccccc2O)c1=O` [Example 52] returned an IC50 of 721 nM.

With `C[C@@H]1OCC2(CCN(c3nc(N)c(-c4ccc(Oc5ccccc5)cc4)c(=O)n3C)CC2)[C@@H]1N` [Example 142], the half-inhibitory concentration (IC50) came to 27 nM.

Consider `Cn1c(N2CCC3(CC2)COC[C@H]3N)nc(N)c(Sc2ccnc(N)c2Cl)c1=O` [Example 16], for which the IC50 came to 22 nM.

Consider `Cn1c(N2CCC(C)(CN)CC2)ncc(Sc2ccnc(Cl)c2Cl)c1=O` [Example 115], for which half-maximal inhibition (IC50) was put at 83 nM.

Compound `C[C@@H]1OCC2(CCN(c3nc(N)c(-c4ccccc4Cl)c(=O)n3C)CC2)[C@@H]1N` [Example 152] returned an IC50 of 45 nM.

With `C[C@H]1CC2(CCN(c3nc(N)c(Sc4cccnc4C(F)(F)F)c(=O)n3C)CC2)[C@H](N)[C@@H]1C(F)(F)F` (single isomer, unassigned) [Example 65], the IC50 came to 61 nM.

As for `C[C@@H]1OCC2(CCN(c3ccc(Sc4cccc(Cl)c4Cl)c(=O)[nH]3)CC2)[C@@H]1N` [Example 120], the IC50 came to 15 nM.

The compound `Cn1c(N2CCC(C)(CN)CC2)nc(N)c(Sc2cccc3c2OC(F)(F)O3)c1=O` [Example 50] yielded an IC50 of 152 nM.

In turn, `CC[C@@H]1OCC2(CCN(c3nc(N)c(Sc4cccnc4C(F)(F)F)c(=O)n3C)CC2)[C@@H]1N` [Example 87] gave an IC50 of 21 nM.

The compound `C[C@@H]1CC2(CCN(c3nc(N)c(Sc4cccnc4C(F)(F)F)c(=O)n3C)CC2)[C@H](N)C1(F)F` [Example 33] gave an IC50 of 40 nM.

Turning to `C[C@@H]1OCC2(CCN(c3nc(N)c(-c4ccc(C#N)cc4)c(=O)n3C)CC2)[C@@H]1N` [Example 175], the half-inhibitory concentration (IC50) turned out to be 256 nM.

For `Cn1c(N2CCC3(CC2)COC[C@H]3N)ncc(Sc2cccc(Cl)c2Cl)c1=O` [Example 101], the IC50 stood at 37 nM.

`Cn1c(N2CCC(C)(CN)CC2)nc(N)c(Sc2ccccc2C#N)c1=O` [Example 51]: the IC50 was 391 nM.

`Cc1ccccc1Sc1c(N)nc(N2CCC(C)(CN)CC2)n(C)c1=O` [Example 54] gave an IC50 of 200 nM.

`COc1nccc(Sc2ccc(N3CCC4(CC3)CO[C@@H](C)[C@H]4N)[nH]c2=O)c1Cl` [Example 119] yielded an IC50 of 83 nM.

In turn, `C[C@@H]1OCC2(CCN(c3nc(N)c(-c4ccc(OCC5CC5)cc4)c(=O)n3C)CC2)[C@@H]1N` [Example 147] showed an IC50 of 39 nM.

The compound `C[C@@H]1OCC2(CCN(c3nc(N)c(-c4cccc(F)c4)c(=O)n3C)CC2)[C@@H]1N` [Example 151] showed an IC50 of 44 nM.

The compound `C[C@@H]1OCC2(CCN(c3nc(N)c(-c4cccc(Cl)c4Cl)c(=O)n3C)CC2)[C@@H]1N` [Example 132] showed an IC50 of 16 nM.

`Cn1c(N2CCC(C)(CN)CC2)nc(N)c(Sc2cccc(Cl)c2)c1=O` [Example 5] returned an IC50 of 2210 nM.

Regarding `C[C@@H]1OCC2(CCN(c3nc(N)c(-c4cccc(F)c4F)c(=O)n3C)CC2)[C@@H]1N` [Example 143], the concentration for half-maximal inhibition (IC50) came to 28 nM.

With `Cn1c(N2CCC(C)(CN)CC2)nc(N)c(Sc2ccccc2C(F)(F)F)c1=O` [Example 49], the IC50 was found to be 74 nM.

As to `Cn1c(N2CCC3(CC2)C[C@H](F)C[C@H]3N)nc(N)c(Sc2ccnc(N)c2Cl)c1=O` [Example 36], the half-maximal inhibitory concentration (IC50) came out at 69 nM.

For the compound `C[C@@H]1OCC2(CCN(c3nc(N)c(-c4ccc(OC(F)F)cc4)c(=O)n3C)CC2)[C@@H]1N` [Example 145], the IC50 came to 34 nM.

On to `C[C@@H]1CC2(CCN(c3nc(N)c(-c4cccc(Cl)c4Cl)c(=O)n3C)CC2)[C@H](N)C1(F)F` [Example 167], for which the IC50 was found to be 89 nM.

The compound `C[C@@H]1OCC2(CCN(c3nc(N)c(Sc4ccc(F)cc4Cl)c(=O)n3C)CC2)[C@@H]1N` [Example 81] showed a 50% inhibitory concentration (IC50) of 15 nM.

For `Cn1c(N2CCC3(CCC[C@H]3N)CC2)nc(N)c(-c2ccccc2)c1=O` [Example 191], 27 nM corresponded to half-maximal inhibition (IC50).

In turn, `C[C@@H]1OCC2(CCN(c3nc(N)c(Sc4cc(N)nc(Cl)c4Cl)c(=O)n3C)CC2)[C@@H]1N` [Example 19] came in with an IC50 of 14 nM.

`C[C@H]1C[C@@H](N)C2(CCN(c3nc(N)c(-c4cccc(Cl)c4)c(=O)n3C)CC2)C1` [Example 125]: half-maximal inhibition (IC50) was put at 12 nM.

The compound `Cn1c(N2CCC3(CC2)CC(F)(F)C[C@H]3N)nc(N)c(-c2ccccc2)c1=O` [Example 150] had a half-maximal inhibitory concentration (IC50) of 44 nM.

Regarding `C[C@@H]1OCC2(CCN(c3nc(N)c(-c4ccc(F)cc4)c(=O)n3C)CC2)[C@@H]1N` [Example 146], half-maximal inhibition (IC50) was put at 38 nM.

Compound `Cn1c(N2CCC3(CCC[C@H]3N)CC2)nc(N)c(-c2cccc(Cl)c2Cl)c1=O` [Example 192] gave an IC50 of 21 nM.

Regarding `Cc1ccccc1-c1c(N)nc(N2CCC3(CC2)CO[C@@H](C)[C@H]3N)n(C)c1=O` [Example 176], the IC50 is 271 nM.

Take `Cn1c(N2CCC(C)(CN)CC2)nc(N)c(-c2cccc(Cl)c2Cl)c1=O` [Example 193]: the 50% inhibitory concentration (IC50) amounted to 40 nM.

`Cn1c(N2CCC3(CCC[C@H]3N)CC2)ncc(Sc2cccc(Cl)c2Cl)c1=O` [Example 109]: the IC50 amounted to 26 nM.

Regarding `Cn1c(N2CCC(C)(CN)CC2)ncc(Sc2cccc(Cl)c2Cl)c1=O` [Example 98, 2-(4-(aminomethyl)-4-methylpiperidin-1-yl)-5-((2,3-dichlorophenyl)thio)-3-methylpyrimidin-4(3H)-one], the IC50 turned out to be 68 nM.

In turn, `CC1(CN)CCN(c2ncc(Sc3ccccc3Cl)c(=O)[nH]2)CC1` [Example 94] registered an IC50 of 178 nM.

Compound `COCCOc1ccc(-c2c(N)nc(N3CCC4(CC3)CO[C@@H](C)[C@H]4N)n(C)c2=O)cc1` [Example 170] gave an IC50 of 169 nM.

`C[C@@H]1OCC2(CCN(c3nc(N)c(Sc4cccc(N)c4Cl)c(=O)n3C)CC2)[C@@H]1N` [Example 25] yielded an IC50 of 38 nM.

Compound `C[C@@H]1OCC2(CCN(c3nc(N)c(-c4ccc(Cl)cc4)c(=O)n3C)CC2)[C@@H]1N` [Example 136] came in with an IC50 of 20 nM.

Compound `C[C@@H]1OCC2(CCN(c3nc(N)c(-c4cc(Cl)ccc4Cl)c(=O)n3C)CC2)[C@@H]1N` [Example 186] had an IC50 of 2230 nM.

In turn, `Cn1c(N2CCC3(CC2)C[C@@H](C(F)(F)F)C[C@H]3N)nc(N)c(-c2ccccc2)c1=O` [Example 161] registered an IC50 of 63 nM.

`N[C@@H]1CCCC12CCN(c1ncc(-c3cccc(Cl)c3Cl)c(=O)[nH]1)CC2` [Example 202] came in with an IC50 of 782 nM.

Consider `C[C@@H]1OCC2(CCN(c3nc(N)c(Sc4cccnc4OC(F)(F)F)c(=O)n3C)CC2)[C@@H]1N` [Example 22], for which the IC50 was found to be 108 nM.

Turning to `Cn1c(N2CCC(C)(CN)CC2)ncc(Sc2ccccc2Cl)c1=O` [Example 99], the IC50 was determined as 375 nM.

As to `Cn1c(N2CCC3(CC2)CC(F)(F)C[C@H]3N)nc(N)c(Sc2ccnc(N)c2Cl)c1=O` [Example 42], the IC50 turned out to be 14 nM.

In the case of `COc1nccc(Sc2c(N)nc(N3CCC4(CC3)CO[C@@H](C)[C@H]4N)n(C)c2=O)c1Cl` [Example 23], it took 23 nM to reach half-maximal inhibition (IC50).
